In US6020360A, “Anticancer property of dithiolopyrrolones” (priority 1996, dated 2000):
Converted amounts (≈) assume the structure as drawn.

Experiments:
[1] = tested on: cervical cancer cell line Hela; experiment: Anticancer activity, SRB growth assay in cervical cancer cell line Hela (3 days); assay type: cell-based; conditions: Homo sapiens, 72 h, 2,500 cells/well, 570 nm, 0.008-1 μg/ml tested
Experimental: (§1) These assays are commonly used by those skilled in the art and are accepted as indicative of anticancer activity in mammals. The anticancer activities of dithiolopyrrolones have been determined in cell cultures of human colon cancer cell line HT-29, breast cancer cell line MCF-7 and cervical cancer cell line Hela. The procedure was carried out using the method described by Skehan et al. (1990). Briefly, cancer cells were grown in RPMI-1640 medium with glutamine and 10% fetal calf serum, and were harvested from exponential-phase maintenance cultures. The harvested cells were counted and dispensed into replicate 96-well culture plates in 180 μl volumes for each well with a cell density of 2,500 cells/well. The cells were allowed to settle for about 4 hours at 37° C. Then 20 μl of medium containing the test dithiolopyrrolone was added into each well, resulting in a final test compound concentration between 0.008-1 μg/ml. The test plates were then incubated at 37° C. The test was terminated 3 days after incubation by adding to each well 50 μl of cold 50% trichloroacetic acid. The cells were fixed for an hour at 4° C. and then washed five times with tap water. The washed plates were air-dried and stained for 30 minutes with 0.4% (wt/vol) sulforhodamine B (SRB) which was dissolved in 1% acetic acid. At the end of the staining period, the SRB was removed and plates were quickly rinsed, five times with 1 % acetic acid. After being rinsed, the plates were air-dried and 100 μl of 10 mM tris base (pH 10.5) were added to each well to solubilize the dye bound to the cells. The plates were placed on a gyratory shaker and shaken (100 rpm) for 10 minutes. Finally, the plates were read in a microtiter plate reader at 570 nm.

platelet aggregation = conditions: in vitro; Ninomiya et al., 1980; cited from earlier work
membrane = conditions: Ninomiya et al., 1980; cited from earlier work
[2] = tested on: breast cancer cell line MCF-7; experiment: Anticancer activity, SRB growth assay in breast cancer cell line MCF-7 (3 days); assay type: cell-based; conditions: Homo sapiens, MCF7, 72 h, 2,500 cells/well, 570 nm, 0.008-1 μg/ml tested
Experimental: as §1, with “At the end of the staining period, the SRB was removed and plates were quickly rinsed, five times with 1 % acetic acid. After being rinsed, the plates were air-dried and 100 μl of 10 mM tris base (pH 10.5) were added to each well to solubilize the dye bound to the cells. The plates were placed on a gyratory shaker and shaken (100 rpm) for 10 minutes.” left out

mammary cells = mammary cells exposed to carcinogens; Menta and Moon, 1991; Arnold et al., 1995; cited from earlier work
[3] = tested on: ornithin decarboxylase (ODC); conditions: Sharma et al., 1994; cited from earlier work
glutathione = conditions: Sharma et al., 1994; cited from earlier work
[4] = tested on: human colon cancer cell line HT-29; experiment: Anticancer activity, SRB growth assay in human colon cancer cell line HT-29 (3 days); assay type: cell-based; conditions: HT-29, 72 h, HT29, 2,500 cells/well, 570 nm, 0.008-1 μg/ml tested
Experimental: as §1, with “At the end of the staining period, the SRB was removed and plates were quickly rinsed, five times with 1 % acetic acid. After being rinsed, the plates were air-dried and 100 μl of 10 mM tris base (pH 10.5) were added to each well to solubilize the dye bound to the cells. The plates were placed on a gyratory shaker and shaken (100 rpm) for 10 minutes.” left out

RNA polymerase = conditions: Jimenez et al., 1973, Tipper; cited from earlier work

## CC(C)CCCC(=O)Nc1c2sscc-2[nH]c1=O [XN3, N-(4,5-dihydro-5-oxo-1,2-dithiolo[4,3-b]pyrrol-6-yl)5-methylhexanoamide]
[1]
  IC50: 0.09 µg/mL (≈ 0.316 µM)

## CC(=O)Nc1c2sscc-2n(C)c1=O [XN0, N-(4,5-dihydro-4-methyl-5-oxo-1,2-dithiolo[4,3-b]pyrrol-6-yl)acetamide]
Platelet aggregation
  inhibition of platelet aggregation (in words): inhibits platelet aggregation in vitro
membrane
  membrane stabilization activity (in words): has membrane stabilization activity
[2]
  IC50: 0.08 µg/mL (≈ 0.35 µM)
Mammary cells
  inhibition of promotion of carcinogenesis-associated activities (in words): inhibits the promotion of several other activities possibly associated with the occurrence of carcinogenesis in mammary cells
[1]
  IC50: 0.07 µg/mL (≈ 0.307 µM)
[3]
  inhibition of ODC (in words): inhibits OCD
glutathione
  reduction of glutathione (in words): induces the reduction of glutathione
[4]
  IC50: 0.03 µg/mL (≈ 0.131 µM)
RNA polymerase
  inhibition of RNA polymerase synthesis (in words): inhibits RNA polymerase synthesis

## CCCCCC(=O)Nc1c2sscc-2n(C)c1=O [XN1, N-(4,5-dihydro-4-methyl-5-oxo-1,2-dithiolo[4,3-b]pyrrol-6-yl)hexanoamide]
[1]
  IC50: 0.13 µg/mL (≈ 0.457 µM)
